Experimental data from US20250325531A1, “TREATMENT OF SYSTOLIC DYSFUNCTION” (MyoKardia, Inc., priority 2024, published 2025).
Values joined by “and” are separate entries in the source; they are usually repeats but may differ in a detail not shown here. Equal entries are not always repeated.

What was measured:
[1] = Pharmacokinetics of single ascending doses (SAD Cohorts 1 and 2) in patients with stable HFrEF; format: in vivo, human
Text: This example describes a study to establish preliminary safety and tolerability of single- and multiple-ascending oral doses of Compound I in ambulatory patients with stable heart failure with reduced ejection fraction (HFrEF). Key eligibility criteria included stable HFrEF of ischemic or nonischemic origin, treated with guideline-directed medical therapy (EF initial requirement during Screening was 20 to 45%, and was later changed by amendment to 15 to 35%). Subjects with active ischemia or severe or valvular heart disease were excluded. The study also aimed (1) to establish preliminary human PK of Compound I after single- and multiple-ascending oral doses of Compound I in patients with HFrEF; (2) to determine changes in left ventricular stroke volume (LVSV) derived from left ventricular outflow tract-velocity time integral (LVOT-VTI), left ventricular ejection fraction (LVEF) and change in left ventricular fractional shortening (LVFS) with Compound I after ascending single and multiple doses compared with Baseline and placebo as measured by transthoracic echocardiography (TTE); (3) to determine changes in systolic ejection time (SET) with Compound I after ascending single and multiple doses compared with Baseline and placebo as measured by TTE; and (4) to determine changes in pharmacodynamics (PD) dose/concentration effects (change in LVSV (derived from LVOT-VTI), LVEF, LVFS) with Compound I compared with Baseline and placebo after ascending single and multiple doses, as measured by TTE.
Part 1 was a randomized, crossover, DB, placebo-controlled, two-cohort, sequential ascending (oral) single-dose study in ambulatory patients with heart failure. All patients received placebo and 2 or 3 active doses of Compound I. Each patient underwent sequential, single-dose treatment events separated by no fewer than 5 days and no more than 14 days. Patients in Cohort 1 may also return for a fourth dosing period (open label) after the SRC reviews available data and recommends the dose. Patients enrolled prior to the implementation of Amendment 1 may be offered the opportunity to return for the open-label period. Patients in Cohort 2 participated in 2 to 4 dosing periods, based on SRC decision. Patients were randomized to one of the different dosing sequences outlined in FIG. 5A. Multiple patients could be dosed at the same time or during the same week depending on administrative issues, i.e., capacity and scheduling.
For each dosing period, patients were admitted to the clinical site on Day-1. Patients were assessed for absence of exclusion criteria (e.g., new lab abnormalities and/or conditions that indicate the patient is clinically unstable). They received Compound I or placebo in the morning of Day 1 followed by serial PK and PD assessments, as well as serial safety assessments. Patients were discharged on Day 3 (i.e., ˜48 hours following Day 1 dosing). An additional outpatient plasma PK sample was taken on the morning of Day 4 at 72 hours postdose.
(§1) Study medication consisted of Compound I 5 mg tablets, 25 mg tablets, 100 mg tablets, or matching placebo tablets. In Part 1 (SAD), Compound I or placebo was administered after an overnight fast (at least 6 hours), while in Part 2 (MAD), Compound I was administered after a 2 hour fast (Cohort A) or with food (Cohorts B, C, and D). The dose was ingested with a minimum of 240 mL of water, but more water was ingested as needed. The entire dose was administered over a period of up to 15 minutes. The time of dose used to determine future assessments was the time the last tablet was taken. In the cohorts for Part 2 (MAD), a BID regimen was used.
In Part 1 (SAD), patients fasted overnight (approximately 6 hours) through 4 hours postdose. With the exception of the water consumed with the dose, water could be ingested until approximately 1 hour prior to dosing and approximately 1 hour after dosing. If doses were split, subjects fasted 6 hours prior to the first half-dose. […]

[2] = Pharmacokinetics of multiple ascending doses (MAD Cohorts A-D) in patients with stable HFrEF; format: in vivo, human; conditions: for Accumulation Index: estimated based λz and Tau
Text: This was a randomized, parallel-group, DB, placebo-controlled, adaptive design, sequential ascending (oral) multiple-dose study in stable patients with heart failure. Four MAD Cohorts (A, B, C, D) were enrolled (FIG. 5B). An SRC reviewed results from each cohort and determined the dose and confirmed initial sample size for the subsequent cohort. Additionally, the first 3 patients in each cohort had LVEF ≥25%; the SRC reviewed preliminary safety data from these patients and decided whether to open cohort enrollment to patients with LVEF <25%.
After Screening and qualification, patients were confined to a clinical testing facility from Day 1 (Check-in) to Day 11. Each patient initially received placebo BID for 2 days (Days 1 and 2) in single-blinded manner (“run-in” during acclimatization to confinement in the Clinical Testing Unit) prior to receiving the randomized DB study drug treatment on Day 3. All patients then received either placebo or active Compound I for 7 days (Days 3 through 9), with a follow-up period with patients discharged from the unit on Day 11. A final follow-up clinic visit was conducted on Day 16. More than one patient could be dosed in a cohort at the same time or during the same week depending on administrative issues, i.e., capacity and scheduling.
Patients were dosed twice daily (every 12 hours). Doses could occur ±2 hours from scheduled dosing times as long as doses were separated by at least 10 hours and by no more than 14 hours. The exception to the twice daily dosing was on Day 9 (last dose of randomized DB study drug treatment). On Day 9, a single morning dose was administered.
During the study, multiple evaluations were performed that included: serial TTE assessments (11-14 TTEs per patient on Days 1, 2, 3, 4, 7, 9, 10 and 11); PK sampling (PK sample collected concomitantly with every post-randomization echocardiogram); ECGs (on Days 2, 3, 4, 7, 9, 10, 11 and 16); troponin (collected concomitantly with every post-randomization ECG); and safety laboratory assessments. Confined patients underwent continuous telemetry. Holter monitoring was performed in all patients at baseline (Days 1-2) and at the end of double-blind treatment (Days 7-9). Vital signs were collected daily.
as §1
In Part 2 (MAD), Cohort A patients fasted for 2 hours before and 2 hours after dosing. For example, if morning dosing occurred at 8 AM, patients could have a snack at 6 AM and a full breakfast at 10 AM. If afternoon dosing occurred at 8 PM, patients could have dinner at 6 PM and a snack at 10 PM. […] Cohort B, C, and D patients ingested food with each dose.
A total of 40 subjects across 4 cohorts received 7 days of treatment with placebo or Compound I at doses of 50 mg (with food), 75 mg (1 cohort with food, 1 cohort with […]), or 100 mg (with food), BID (see FIG. 5B and Table 14).

[3] = MAD Cohort A (75 mg BID, 4 h fasting), individual subjects
[4] = MAD Cohort B (50 mg BID, with food), Mean
[5] = MAD Cohort C (75 mg BID, with food), individual subjects

Cn1cc(S(=O)(=O)[C@@](C)(F)C2CCN(C(=O)Nc3ccon3)CC2)c(C(F)F)n1 [Compound I, (R)-4-(1-((3-(difluoromethyl)-1-methyl-1H-pyrazol-4-yl)sulfonyl)-1-fluoroethyl)-N-(isoxazol-3-yl) piperidine-1-carboxamide]
mean (SD) Cmax ([1]; 350 mg single dose, fasted): 2760 (856) ng/mL
AUC0-∞ ([1]; SAD Cohort 1, 175 mg (n = 8)): 53,800 hr × ng/mL
AUC0-∞ ([1]; SAD Cohort 1, 350 mg (n = 8)): 103,000 hr × ng/mL
Cmax ([1]; SAD Cohort 1, 350 mg (n = 8)): 2760 ng/mL
AUC0-∞ ([1]; SAD Cohort 1, 525 mg (n = 2)): 127,000 hr × ng/mL
AUC0-24 ([1]; SAD Cohort 1, 4th dose 350 mg (n = 1)): 70,100 hr × ng/mL
Steady-state (Day 9) post-dose maximum concentration ([2]; Cohort A + C (n = 14), 75 mg BID): 3862 (27.7%) ng/mL
Steady-state (Day 9) post-dose maximum concentration ([2]; Cohort B (n = 8), 50 mg BID): 2735 (17.5%) ng/mL
Steady-state (Day 9) post-dose maximum concentration ([2]; Cohort D (n = 6), 100 mg BID): 5560 (22.8%) ng/mL
Accumulation Index ([2]; MAD Cohort A (75 mg BID, 4 h fasting), Mean): 3.11
AUCtau, Day 1 [2, 3]: 10610 ng·h/mL
Accumulation Index [2, 3]: 3.82 and 3.89 and 2.79* and 2.21 and 3.00 and 2.61
Cmax, SS [2, 4]: 2771 ng/mL
Accumulation Index [2, 4]: 3.55
Accumulation Index ([2]; MAD Cohort B (50 mg BID, with food), individual subjects): 3.63 and 5.03 and 4.46 and 2.93 and 3.51 and 2.42 and 3.20 (2×) and 4.23*
Accumulation Index ([2]; MAD Cohort C (75 mg BID, with food), Mean): 3.18
AUCtau, Day 1 [2, 5]: 10560 ng·h/mL
Accumulation Index [2, 5]: 2.18 and 2.39 and 2.99 and 3.31 and 5.51 and 2.43 and 2.20 and 4.17 and 3.42
Accumulation Index ([2]; MAD Cohort D (100 mg BID, with food), Mean): 3.30
Accumulation Index ([2]; MAD Cohort D (100 mg BID, with food), individual subjects): 3.46 and 3.77 and 3.06 and 3.31 and 2.61 and 3.62
